Experimental data: patent publication US11028051B2, “Tetrahydroquinoline-based bromodomain inhibitors” (St. Jude Children's Research Hospital, priority 2016, dated 2021)
Where two headings read alike, the source gives them in different places.

What was measured:
[1] = system: HDMB03 cells; assay: cell viability, CellTiter-Glo; format: cell-based, human; conditions: Homo sapiens, read-out: EC50 (μM) HDMB03
How it was run: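 Medulloblastoma cells grown as neurospheres in supplemented neurobasal medium and treated for 7 days; viability read by CellTiter-Glo luminescence. Log10-transformed signal normalized to negative and positive controls; median percent inhibition of triplicates fitted with a four-parameter log-logistic model.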

[2] = system: Loucy; assay: anti-proliferative activity; format: cell-based; conditions: Table 5
Description: (§1) After 7 days of treatment, an equal volume of CellTiter-Glo reagent (G7572, Promega) was added and the luminescence signal was measured using an automated Envision plate reader (Perkin-Elmer). Luminescence data were normalized by log10 transformation prior to calculating the percent inhibition using the following equation:
(§2) 100*(negative control mean −compound value)/(negative control mean −positive control mean).

[3] = system: SEM cells; assay: anti-proliferative activity; format: cell-based; conditions: Table 5
Description: as §1, §2

[4] = system: MV-4-11; assay: anti-proliferative activity; format: cell-based; conditions: Homo sapiens, MV4-11; Table 7
Description: as §1, §2

[5] = system: NALM-16; assay: anti-proliferative activity; format: cell-based; conditions: NALM16; Table 5
Description: as §1, §2

[6] = target: T1, BRD2-BD2 (Homo sapiens (Human), UniProt P25440); assay: competitive TR-FRET assay, BET-BD with acetylated peptide ligand; format: binding; conditions: for EC50: read-out: EC50 (μM) BRD2(2)
Description: (§3) Inhibitor potency was determined using a competitive TR-FRET assay as detailed herein, measuring interaction of the respective BET-BD with an acetylated peptide ligand (Table 2).
Target sequence in this assay (P25440 344-453): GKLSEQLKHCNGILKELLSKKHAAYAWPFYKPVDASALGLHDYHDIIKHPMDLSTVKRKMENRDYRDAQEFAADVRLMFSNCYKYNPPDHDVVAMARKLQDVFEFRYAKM

[7] = target: BRD3-BD1 (Homo sapiens (Human), UniProt Q15059); assay: as above; format: binding
Sequence of BRD3-BD1 (Q15059 34-140): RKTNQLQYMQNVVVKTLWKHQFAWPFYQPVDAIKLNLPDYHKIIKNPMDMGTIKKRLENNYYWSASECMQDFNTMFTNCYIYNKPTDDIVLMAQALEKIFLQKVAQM
Description: as §3

[8] = target: BRDT (Homo sapiens, UniProt Q58F21); assay: as above; format: binding
Description: as §3

[9] = target: T2, BRD2-BD1 (Homo sapiens (Human), UniProt P25440); assay: as above; format: binding; conditions: read-out: EC50 (μM) BRD2(1)
Description: as §3
Target sequence in this assay (P25440 74-180): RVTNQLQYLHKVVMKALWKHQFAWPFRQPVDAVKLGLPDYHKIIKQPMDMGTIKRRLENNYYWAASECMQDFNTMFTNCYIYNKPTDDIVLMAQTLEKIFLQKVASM

[10] = target: BRD4-BD2 (Homo sapiens (Human), UniProt O60885); assay: as above; format: binding
Description: as §3

[11] = target: BRD4-BD1 (Homo sapiens (Human), UniProt O60885); assay: as above; format: binding; conditions: Table 4; read-out: EC50 (μM) BRD4(1)
Description: as §3

[12] = target: T1, BRD2-BD2; assay: isothermal titration calorimetry analysis of binding; conditions: ITC, BRD2(2); read-out: KD (ITC)
Target sequence in this assay (P25440 348-455): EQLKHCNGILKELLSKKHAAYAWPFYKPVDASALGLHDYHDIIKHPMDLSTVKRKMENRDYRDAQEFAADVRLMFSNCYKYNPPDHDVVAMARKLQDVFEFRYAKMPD

[13] = target: T2, BRD2-BD1; assay: as above; conditions: ITC, BRD2(1); read-out: KD (ITC)
How it was run: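 ITC was run in 50 mM HEPES pH 7.0 with 150 mM NaCl, using BRD2 BD1 (74-194) or BD2 (348-455) titrated from the syringe into compound in the cell. Injections were one of 1 μL followed by 19 of 2 μL at 120 s intervals, excluding the first. Data were fitted with an independent sites model.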
Target sequence in this assay (P25440 74-194): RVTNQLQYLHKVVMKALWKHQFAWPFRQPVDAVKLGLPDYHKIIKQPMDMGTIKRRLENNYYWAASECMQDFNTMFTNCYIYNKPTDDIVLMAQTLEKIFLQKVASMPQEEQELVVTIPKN

COC(=O)c1ccc(N[C@@H]2C[C@H](C)N(C(C)=O)c3ccc(-c4cccc(NC(C)=O)c4)cc32)cc1 [compound 4]
EC50 ([1]; HD-MB03, Table 5): 0.31 µM | EC50 ([1]; HD-MB03, Table 7): 0.75 µM | EC50 ([1]; HD-MB03, Table 9, cancer cell proliferation inhibition): 0.75 µM | EC50 [2]: 0.39 µM | EC50 [3]: 0.02 µM | EC50 [4]: 0.016 µM | EC50 [5]: 0.35 µM | [2(1)/2(2)] ([6]; Table 4, ratio of EC50): 19.5 | EC50 ([6]; Table 4): 0.022 µM | [2(1)/2(2)] ([6]; Table 6, ratio of EC50): 14.2 | EC50 ([6]; Table 6): 0.11 µM | EC50 ([6]; Table 8): 0.11 µM | EC50 ([7]; Table 4, read-out: BRD3(1)): 1.1 µM | EC50 ([7]; Table 6, read-out: EC50 (μM) BRD3(1)): 1.1 µM | EC50 ([7]; Table 8, read-out: BRD3(1)): 1.1 µM | EC50 ([8]; Table 4, read-out: BRDT EC50): 4 µM | EC50 ([8]; Table 6, head names no target, BRDT by comparison with Table 4, read-out: EC50): 4 µM | EC50 ([8]; Table 8, head names no target, BRDT by comparison with Table 4, read-out: EC50): 4 µM | EC50 ([9]; Table 4): 0.43 µM | EC50 ([9]; Table 6): 1.56 µM | EC50 ([9]; Table 8): 1.56 µM | 4(1)/4(2) ([10]; Table 4, ratio of EC50): 20.5 | EC50 ([10]; Table 4, read-out: EC50 (μM) BRD4(2)): 0.021 µM | EC50 [11]: 0.43 µM | Kd [12]: < 0.001 µM | Kd [13]: 0.025 µM
